Assay results published in article PMC6189519, “Evaluation of the DREAM Technique for a High-Throughput Deorphanization of Chemosensory Receptors in Drosophila” (Frontiers in Molecular Neuroscience, 2018).

Tests used:
Experiment in all cases: single sensillum recording of the wild-type OSN expressing the receptor
Or19a = target: T1, Or19a (Drosophila melanogaster, UniProt Q9I816); settings: odorant dilution 10^-1 in hexane, 0.5 s stimulus
T1 construct: native full-length receptor in olfactory sensory neurons (ai2 sensillum) of wild-type flies; paralogue Or19b may be co-expressed; with Odorant receptor coreceptor
T1 sequence (Q9I816 1-387): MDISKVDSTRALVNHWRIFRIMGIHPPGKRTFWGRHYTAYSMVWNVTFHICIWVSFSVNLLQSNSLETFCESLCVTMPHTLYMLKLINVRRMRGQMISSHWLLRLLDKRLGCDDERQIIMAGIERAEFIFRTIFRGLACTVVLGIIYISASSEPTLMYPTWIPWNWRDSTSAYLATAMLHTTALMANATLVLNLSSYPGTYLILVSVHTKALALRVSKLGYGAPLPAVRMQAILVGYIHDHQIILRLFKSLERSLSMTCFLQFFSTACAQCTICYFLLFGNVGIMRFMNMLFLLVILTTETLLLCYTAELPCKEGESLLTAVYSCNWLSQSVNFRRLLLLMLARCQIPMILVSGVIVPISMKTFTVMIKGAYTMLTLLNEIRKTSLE
T1 sequence (Q9VNB5 1-486 partner): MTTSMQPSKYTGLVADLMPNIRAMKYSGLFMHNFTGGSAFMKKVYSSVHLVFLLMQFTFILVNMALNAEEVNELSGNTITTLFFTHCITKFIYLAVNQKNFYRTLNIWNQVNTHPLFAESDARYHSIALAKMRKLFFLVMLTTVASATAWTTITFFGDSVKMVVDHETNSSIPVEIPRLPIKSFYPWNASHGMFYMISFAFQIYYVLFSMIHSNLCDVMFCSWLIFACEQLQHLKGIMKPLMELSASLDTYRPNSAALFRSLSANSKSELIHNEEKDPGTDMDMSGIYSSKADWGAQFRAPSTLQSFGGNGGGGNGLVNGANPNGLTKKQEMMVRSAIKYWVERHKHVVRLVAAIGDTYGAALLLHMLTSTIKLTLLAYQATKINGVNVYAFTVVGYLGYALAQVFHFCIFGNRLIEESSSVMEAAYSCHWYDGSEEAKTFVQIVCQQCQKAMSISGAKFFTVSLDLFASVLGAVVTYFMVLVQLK

Ir31a = target: T2, Ir31a (Drosophila melanogaster, UniProt Q8IPB8); settings: agonist (best ligand); odorant dilution 10^-1 in hexane, 0.5 s stimulus
T2 construct: native full-length ionotropic receptor in olfactory sensory neurons of wild-type flies (single sensillum recording); with Ionotropic receptor 8a
T2 sequence (Q8IPB8 18-629): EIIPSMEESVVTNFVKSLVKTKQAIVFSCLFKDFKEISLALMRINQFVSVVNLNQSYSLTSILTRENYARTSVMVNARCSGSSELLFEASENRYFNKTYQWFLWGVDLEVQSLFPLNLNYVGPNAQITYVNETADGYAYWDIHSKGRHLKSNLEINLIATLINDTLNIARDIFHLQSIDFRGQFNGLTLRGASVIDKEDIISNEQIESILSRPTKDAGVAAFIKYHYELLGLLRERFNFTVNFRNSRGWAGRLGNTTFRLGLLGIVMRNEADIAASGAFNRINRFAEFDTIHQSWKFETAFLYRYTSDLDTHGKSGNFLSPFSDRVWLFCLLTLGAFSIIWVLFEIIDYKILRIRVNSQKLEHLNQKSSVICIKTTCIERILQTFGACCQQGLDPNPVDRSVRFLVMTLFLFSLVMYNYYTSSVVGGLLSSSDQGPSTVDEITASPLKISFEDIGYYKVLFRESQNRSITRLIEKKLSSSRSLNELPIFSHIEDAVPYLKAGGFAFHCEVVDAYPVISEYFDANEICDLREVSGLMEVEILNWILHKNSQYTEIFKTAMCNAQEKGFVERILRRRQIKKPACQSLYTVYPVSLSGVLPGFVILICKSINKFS
T2 sequence (Q9W365 18-936 partner): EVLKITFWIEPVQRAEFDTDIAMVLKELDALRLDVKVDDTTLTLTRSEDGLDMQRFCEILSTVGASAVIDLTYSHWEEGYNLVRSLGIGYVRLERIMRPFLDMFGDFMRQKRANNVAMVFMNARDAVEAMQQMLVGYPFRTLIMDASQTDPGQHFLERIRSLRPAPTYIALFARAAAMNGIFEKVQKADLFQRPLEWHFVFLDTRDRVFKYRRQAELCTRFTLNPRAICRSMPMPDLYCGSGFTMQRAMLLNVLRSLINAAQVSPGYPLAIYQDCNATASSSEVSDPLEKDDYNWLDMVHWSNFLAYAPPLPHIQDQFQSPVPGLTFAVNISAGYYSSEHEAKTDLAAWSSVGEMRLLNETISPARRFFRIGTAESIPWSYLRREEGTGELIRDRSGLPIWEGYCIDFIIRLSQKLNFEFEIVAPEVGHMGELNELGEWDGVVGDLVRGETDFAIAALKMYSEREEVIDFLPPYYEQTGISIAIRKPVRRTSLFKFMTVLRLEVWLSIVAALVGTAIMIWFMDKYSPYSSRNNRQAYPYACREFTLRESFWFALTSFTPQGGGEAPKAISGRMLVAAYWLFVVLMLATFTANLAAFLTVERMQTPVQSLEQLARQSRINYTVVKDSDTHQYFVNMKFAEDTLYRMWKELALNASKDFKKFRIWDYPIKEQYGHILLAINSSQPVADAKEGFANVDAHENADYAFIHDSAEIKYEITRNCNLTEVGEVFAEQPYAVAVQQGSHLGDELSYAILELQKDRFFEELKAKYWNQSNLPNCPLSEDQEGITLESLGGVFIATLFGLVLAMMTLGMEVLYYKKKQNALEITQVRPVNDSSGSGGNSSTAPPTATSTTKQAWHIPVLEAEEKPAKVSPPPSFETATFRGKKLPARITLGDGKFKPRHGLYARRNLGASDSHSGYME

Or22a = target: T3, Or22a (Drosophila melanogaster, UniProt P81909); settings: agonist; odorant dilution 10^-1 in hexane, 0.5 s stimulus
T3 construct: native full-length receptor in olfactory sensory neurons (ab3A) of wild-type flies; Or22b may be co-expressed; with Odorant receptor coreceptor
T3 sequence (P81909 1-397): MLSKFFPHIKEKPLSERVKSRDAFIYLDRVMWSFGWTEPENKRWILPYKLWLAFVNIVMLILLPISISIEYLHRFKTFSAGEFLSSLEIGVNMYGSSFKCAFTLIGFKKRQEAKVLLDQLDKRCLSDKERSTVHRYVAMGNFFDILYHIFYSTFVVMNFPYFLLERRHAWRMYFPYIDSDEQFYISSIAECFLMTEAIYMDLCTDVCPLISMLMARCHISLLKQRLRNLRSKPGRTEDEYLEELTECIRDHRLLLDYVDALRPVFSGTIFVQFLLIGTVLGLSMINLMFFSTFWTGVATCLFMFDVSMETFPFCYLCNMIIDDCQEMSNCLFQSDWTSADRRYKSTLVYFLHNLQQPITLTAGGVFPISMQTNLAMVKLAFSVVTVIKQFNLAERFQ
T3 sequence (Q9VNB5 1-486 partner): T1 sequence (Q9VNB5 1-486 partner)

Or49b = target: T4, Or49b (Drosophila melanogaster, UniProt Q9V6H2); settings: agonist (best ligand); odorant dilution 10^-1 in hexane, 0.5 s stimulus
T4 construct: native full-length receptor in olfactory sensory neurons (ab6B) of wild-type flies (single sensillum recording); with Odorant receptor coreceptor
T4 sequence (Q9V6H2 1-375): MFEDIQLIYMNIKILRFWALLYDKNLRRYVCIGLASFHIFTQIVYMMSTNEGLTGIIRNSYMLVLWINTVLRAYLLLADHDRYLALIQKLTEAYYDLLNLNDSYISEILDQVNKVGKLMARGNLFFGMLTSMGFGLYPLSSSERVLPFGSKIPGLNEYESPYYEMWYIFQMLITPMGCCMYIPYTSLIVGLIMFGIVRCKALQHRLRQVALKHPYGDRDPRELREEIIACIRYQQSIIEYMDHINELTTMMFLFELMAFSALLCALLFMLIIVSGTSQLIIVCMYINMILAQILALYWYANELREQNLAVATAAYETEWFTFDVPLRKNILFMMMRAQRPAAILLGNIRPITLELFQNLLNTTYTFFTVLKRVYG
T4 sequence (Q9VNB5 1-486 partner): T1 sequence (Q9VNB5 1-486 partner)

With `CCCC(=O)C(=O)O` [2-oxo-valeric acid] the spikes/s (Or19a; printed as gated by the odorant, direction not told) was “Or19a as an OR being gated by 2-oxo-valeric acid”, the spikes/s (Ir31a) was “both being chemosensory receptors shown to be activated by stimulation with this odorant” and the spikes/s (Or22a) was “both being chemosensory receptors shown to be activated by stimulation with this odorant”.
With `CC(=O)OC/C=C(\C)CCC=C(C)C` [geranyl acetate] the spikes/s (Or19a; agonist) was “OSNs expressing Or19a indeed become activated by high amounts of geranyl acetate”.
`COc1ccccc1O` [guaiacol] was tested, and the spikes/s (Or49b) was “confirming the published ligand–receptor interaction of guaiacol and Or49b”.
